System: T cells
Assay: not given
Settings: oral administration of KD025, healthy human subjects, ex-vivo stimulation of T-cells; cited from earlier work

Structure (SMILES)	reduction of the ability of T cells to secrete IL-17	reduction of the ability of T cells to secrete IL-21
CC(C)NC(=O)COc1cccc(-c2nc(Nc3ccc4[nH]ncc4c3)c3ccccc3n2)c1 [KD025]	60%	90%

Biological target: T1, N-terminal 6His-tagged ROCK2 catalytic domain 11-552 (Homo sapiens, UniProt O75116)
T1 construct: N-terminal 6His-tagged ROCK2 catalytic domain 11-552; 6His (N); purchased Dundee University, UK; host or cells: baculovirus expression system
Assay: ROCK2 binding activity: ROCK2 inhibition, ADP-Glo Kinase Assay
Assay type: biochemical
Settings: 1.25 nM ROCK2, 100 μM long S6 peptide, 20 μM ATP; 1 hour pre-incubation; read-out: ADP-Glo kinase activity assay ROCK2 Category
Summary of the method: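 1.25 nM baculovirus-expressed ROCK2 pre-incubated 1 h with compound (1% DMSO), then 100 μM long S6 peptide and 20 μM ATP added for 1 h; 50 mM HEPES pH 7.5, 10 mM Mg acetate, 1 mM DTT. ADP-Glo luminescence; IC50 from four-parameter logistic fit.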

T1 sequence (O75116 11-552): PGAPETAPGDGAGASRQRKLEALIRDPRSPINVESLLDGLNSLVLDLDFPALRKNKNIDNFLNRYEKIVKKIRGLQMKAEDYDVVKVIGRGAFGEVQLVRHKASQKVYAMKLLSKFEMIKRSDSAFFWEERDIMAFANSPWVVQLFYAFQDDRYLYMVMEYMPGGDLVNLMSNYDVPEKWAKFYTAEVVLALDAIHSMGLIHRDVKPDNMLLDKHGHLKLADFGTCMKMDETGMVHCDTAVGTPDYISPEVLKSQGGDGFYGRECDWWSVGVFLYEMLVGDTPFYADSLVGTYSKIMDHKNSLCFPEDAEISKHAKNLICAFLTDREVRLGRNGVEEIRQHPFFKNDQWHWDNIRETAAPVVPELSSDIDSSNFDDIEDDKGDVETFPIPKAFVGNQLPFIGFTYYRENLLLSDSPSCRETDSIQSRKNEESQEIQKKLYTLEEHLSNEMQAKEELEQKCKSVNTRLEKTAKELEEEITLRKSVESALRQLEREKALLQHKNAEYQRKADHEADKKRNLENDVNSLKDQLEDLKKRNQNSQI

IC50	Structure (SMILES)
< 300 nM	O=C(NCC(F)(F)F)c1ccc(-c2nc(Nc3ccc4[nH]ncc4c3C3CC3)n(C3CCNCC3)n2)cc1 [Example 442]
< 300 nM	CNCCn1nc(-c2ccc(C(=O)NCC(F)(F)F)cc2)nc1Nc1ccc2[nH]ncc2c1C1CC1 [Example 443]
< 300 nM	CC(O)Cn1nc(-c2ccc(C(=O)NCC(F)(F)F)cc2)nc1Nc1ccc2[nH]ncc2c1C1CC1 (centres unmarked) [Example 444]
< 300 nM	COc1cc(-c2nc(Nc3ccc4[nH]ncc4c3)n(CCN3CCCCC3)n2)ccc1OCC(=O)NC(C)C [Example 445]
< 300 nM	COc1cc(-c2nc(Nc3ccc4[nH]ncc4c3)n(CCN3CCOCC3)n2)ccc1OCC(=O)NC(C)C [Example 446]
< 300 nM	COCCn1nc(-c2ccc(OCC(=O)NC(C)C)c(OC)c2)nc1Nc1ccc2[nH]ncc2c1 [Example 447]
< 300 nM	COCCn1nc(-c2ccc(C(=O)NCC(F)(F)F)c(OC)c2)nc1Nc1ccc2[nH]ncc2c1C [Example 448]
< 300 nM	COc1cc(-c2nc(Nc3ccc4[nH]ncc4c3C)n(C(C)C)n2)ccc1C(=O)NCC(F)(F)F [Example 449]
< 300 nM	COc1cc(-c2nc(Nc3ccc4[nH]ncc4c3C)n(C(C)C)n2)ccc1OCC(=O)NC(C)C [Example 450]
< 300 nM	Cc1cc(-c2nc(Nc3ccc4[nH]ncc4c3C)n(CC(C)C)n2)ccc1C(=O)NCC(F)(F)F [Example 451]
< 300 nM	COc1cc(-c2nc(Nc3ccc4[nH]ncc4c3C)n(CC(C)C)n2)ccc1OCC(=O)NC(C)C [Example 452]
< 300 nM	COCCn1nc(-c2ccc(C(=O)NCC(F)(F)F)cc2)nc1Nc1ccc2[nH]ncc2c1C [Example 453]
< 300 nM	COCCn1nc(-c2ccc(C(=O)NCC(F)(F)F)c(C)c2)nc1Nc1ccc2[nH]ncc2c1C [Example 454]
< 300 nM	COc1cc(-c2nc(Nc3ccc4[nH]ncc4c3C)n(CC(C)C)n2)ccc1C(=O)NCC(F)(F)F [Example 455]
< 300 nM	COc1cc(-c2nc(Nc3ccc4[nH]ncc4c3C)n(C3CC3)n2)ccc1C(=O)NCC(F)(F)F [Example 456]
< 300 nM	CCn1nc(-c2ccc(C(=O)NCC(F)(F)F)c(OC)c2)nc1Nc1ccc2[nH]ncc2c1C [Example 457]
< 300 nM	C=C(C)c1c(Nc2nc(-c3ccc(C(=O)NCC(F)(F)F)cc3)nn2C)ccc2[nH]ncc12 [Example 458, 4-[5-[(4-isopropenyl-1H-indazol-5-yl)amino]-1-methyl-1,2,4-triazol-3-yl]-N-(2,2,2-trifluoroethyl)benzamide]
< 300 nM	C=C(C)c1c(Nc2nc(-c3ccc(C(=O)NCC)cc3)nn2C)ccc2[nH]ncc12 [Example 459, N-ethyl-4-[5-[(4-isopropenyl-1H-indazol-5-yl)amino]-1-methyl-1,2,4-triazol-3-yl]benzamide]
< 300 nM	CC(C)NC(=O)COc1ccc(-c2nc(Nc3ccc4[nH]ncc4c3)n(C)n2)cc1 [Example 470]
< 300 nM	CC(C)NC(=O)COc1ccc(-c2nc(Nc3ccc4[nH]ncc4c3Cl)n(C)n2)cc1 [Example 471]
< 300 nM	CC(C)NC(=O)COc1ccc(-c2nc(Nc3ccc4[nH]ncc4c3Cl)n(C)n2)cc1Cl [Example 472]
< 300 nM	CC(C)NC(=O)COc1ccc(-c2nc(Nc3ccc4[nH]ncc4c3)n(C)n2)cc1F [Example 473]
< 300 nM	CC(C)NC(=O)COc1ccc(-c2nc(Nc3ccc4[nH]ncc4c3Cl)n(C)n2)cc1F [Example 474]
< 300 nM	CC(C)NC(=O)COc1ccc(-c2nc(Nc3ccc4[nH]ncc4c3Cl)n(C)n2)c(C(F)(F)F)c1 [Example 475]
